{
  "source": "paper PMC11232401",
  "about": "“Characterization of antimalarial activity of artemisinin-based hybrid drugs” (Antimicrobial Agents and Chemotherapy, 2024)",
  "key": {"[1]": {"tested_on": "3D7 strain of P. falciparum", "experiment": "Host cell-mediated drug degradation: antiplasmodial activity of uRBC supernatants", "assay_type": "cell-based, Plasmodium falciparum", "details": "for IC50: Plasmodium falciparum, 3D7, 0.16 h, 500 nM drug, 3D7, SYBR Green I, median ± SEM (AQ mean, 95% CI), read-out: IC50 of supernatants harvested at 0.16 h; for Fold changes (24 h/0.16 h): 3D7, ratio of IC50 at 24 h to IC50 at 0.16 h", "method": "Each well of 96-well plates was filled with 125 µL drug (1000 nM) and 125 µL uninfected red blood cells (uRBC), which were mixed to obtain a final drug concentration of 500 nM and 2.5% or 1.0% hematocrit. The plates were incubated at 37°C in the standard gas mixture. After each time point (10 min, 6 h, and 24 h), supernatants were carefully harvested and stored at −80°C until use. […] Next, supernatants were diluted in a complete medium in six different dilutions and were aliquoted in new plates. The antimalarial activity of these supernatants and freshly dissolved drugs was determined in an asynchronous parasite culture of P. falciparum (3D7, D10, and W2 strains) for 72 h using the same method described above, and parasite viability was assessed by the pLDH ([38]) and SYBR Green I ([41]) methods. Only the experiments where the IC50 values of the supernatants harvested at 10 min were the same as those of the respective fresh drugs were considered for determining equivalent drug concentration. […] Decay in drug concentration was estimated by using the normalized slope values calculated from linear regression fits using the slope values of a standard curve as reference. Three independent experiments were performed using two replicates.\nFigure S5: Data associated to Figure 3 in the main text of the manuscript. Panel A: Representative response-concentration curves of the antiplasmodial activity of supernatant-derived uRBC (2.5% hematocrit) harvested at indicated times (0.16, 6, and 24 h). Drug activity on parasite viability was determined 72 h after parasite incubation (3D7 strain, asynchronous). Values were subtracted from control (without treatment), transformed, and normalized to calculate nonlinear fit. Parasite viability was determined by SYBR Green I. Values are mean and error bars are the standard deviation of a single experiment, each concentration in duplicate. […] Footnotes: ^[a] Parasite viability was determined by SYBR Green I. ^[b^] Parasite viability was determined by pLDH readout. Values are median ± SEM of three independent experiments, each concentration in duplicate. ^[c^] […] These values are expressed as mean and 95% confidence interval (CI) of one experiment, each concentration in duplicate. […] Unpaired two-tailed t-test at 95% CI: *p <0.05; **p <0.01."}, "[2]": {"tested_on": "Asynchronous NF54 strain of P. falciparum", "experiment": "Speed of drug activity (pLDH)", "assay_type": "cell-based, Plasmodium falciparum", "details": "for IC50: Plasmodium falciparum, NF54, asynchronous, mean (95% CI)", "method": "Each well of 96-well plates was filled with 100 µL drug and 100 µL culture containing asynchronous P. falciparum (NF54 strain) parasites, which were mixed to obtain a final parasitemia of 1.0% to 1.5% and 1.0% hematocrit. The plates were incubated for 24, 48, and 72 h at 37°C with a standard gas mixture. […] Parasite viability was measured using the pLDH method, and IC50 values were calculated as described above. Three independent experiments were performed using two technical replicates.\nFigure S3: Speed of antiparasitic activity of hybrids (1) and (2) against CQ-sensitive NF54 strain of P. falciparum. Panel A: Representative response-concentration curves. Panel B: A table summarizing the results. Footnotes for table: ^[a] Parasite viability was accessed at each indicated time (24, 48, or 72 h) after addition of drugs. Values are the mean and 95% confidence interval of one experiment using each concentration of compounds in duplicate. Parasite viability was determined by parasite lactate dehydrogenase (pLDH) assay. DHA = dihydroartemisinin; ATO = atovaquone."}, "[3]": {"tested_on": "quiescent ART-resistant parasites (F32-ART)", "experiment": "Quiescent-stage survival assay (QSA)", "assay_type": "cell-based, Plasmodium falciparum", "details": "threshold of activity 6 days", "method": "The QSA was performed as previously described to determine the drug activity on quiescent ART-resistant parasites ([11]). F32-ART culture parasites were synchronized at the ring stage and adjusted to 3% parasitemia and 2% hematocrit. […] At the end of treatment, parasites from each of the three conditions were washed with RPMI-1640 medium and replaced in new wells in a drug-free culture medium with 10% human serum. Parasitemia was determined daily by thin blood smears until the cultures reached their initial parasitemia (3%), which was defined as the recrudescence day ([11]). The recrudescence capacity of parasites exposed in conditions A and B was compared to determine whether the drug was active on quiescent parasites. Condition C was designed to check that the concentration at which the drug was tested acted on proliferating parasites. If no parasite recrudescence was observed, the experiment was stopped."}, "[4]": {"experiment": "In vitro metabolic stability assay in microsomes", "assay_type": "in vitro ADME", "details": "for half-life at 1 µM: read-out: Degradation half-life; for microsomal CLint at 1 µM: 0.4 mg/mL", "method": "In vitro microsomal stability assay was performed in duplicate in a 96-well microtiter plate, using a single-point experiment design ([42]). Test compounds (1 µM) were incubated individually in human (pool of 50, mixed gender), rat (pool of 711, male Sprague Dawley), and mouse (pool of 1,634, male CD1) liver microsomes (Xenotech, Kansas, USA) to a final protein concentration of 0.4 mg/mL, suspended in 0.1 M phosphate buffer (pH 7.4). Incubations were started by the addition of NADPH (1 mM) as a cofactor and shaken for 30 min at 37°C. The reactions were quenched by the addition of 300 µL of ice-cold acetonitrile containing an internal standard (carbamazepine, 0.0236 µg/mL) and centrifuged. The supernatant was transferred to a fresh 96-well plate and analyzed by liquid chromatography-tandem mass spectrometry (LC-MS/MS) (Agilent Rapid Resolution HPLC, AB SCIEX 4500 MS). The relative loss of the parent compound over time was monitored, and plots (concentration vs time) were prepared per compound to determine the first-order rate constant for compound depletion. This was in turn used to calculate half-life, in vitro intrinsic clearance (Clint), and in vivo hepatic extraction ratio ([43])."}},
  "note": "Where two headings read alike, the source gives them in different places.",
  "data": [
    {"smiles": "CCN(CC)Cc1cc(Nc2ccnc3cc(Cl)ccc23)ccc1O", "note": "[AQ, amodiaquine, reference compound]", "values": [
      {"measurement": "IC50", "setting": "[1]; uRBC 1.0% hematocrit", "result": 3.9, "unit": "nM"},
      {"measurement": "IC50", "setting": "[1]; uRBC 2.5% hematocrit", "result": 3.6, "unit": "nM"},
      {"measurement": "Fold changes (24 h/0.16 h)", "setting": "[1]; uRBC 1.0% hematocrit", "result": 0.76},
      {"measurement": "Fold changes (24 h/0.16 h)", "setting": "[1]; uRBC 2.5% hematocrit", "result": 0.91}
    ]},
    {"smiles": "O=C1C(O)=C([C@H]2CC[C@H](c3ccc(Cl)cc3)CC2)C(=O)c2ccccc21", "note": "[ATO, atovaquone, reference compound]", "values": [
      {"measurement": "IC50", "setting": "[2]; viability at 24 h, read-out: IC50, 24 h", "result": "> 600", "unit": "nM"},
      {"measurement": "IC50", "setting": "[2]; viability at 48 h, read-out: IC50, 48 h", "result": 5.3, "unit": "nM"},
      {"measurement": "IC50", "setting": "[2]; viability at 72 h, read-out: IC50, 72 h", "result": 0.78, "unit": "nM"},
      {"measurement": "Conclusion (speed of antiparasitic activity)", "setting": "[2]; from IC50 at 24, 48, 72 h", "result": "Slow-acting"},
      {"measurement": "delay of recrudescence in the QSA versus DHA alone", "setting": "[3]", "result": "up to 10 days"}
    ]},
    {"smiles": "C[C@H]1[C@H](OC(=O)CCC(=O)O)O[C@@H]2O[C@@]3(C)CC[C@H]4[C@H](C)CC[C@@H]1[C@@]24OO3", "note": "[Artesunate, artesunate, reference compound]", "values": [
      {"measurement": "half-life at 1 µM", "setting": "[4]; both sexes, pH 7.4, human liver microsomes", "result": 7, "unit": "min"},
      {"measurement": "microsomal CLint at 1 µM", "setting": "[4]; both sexes, human liver microsomes, pH 7.4", "result": 250, "unit": "µL/min/mg"},
      {"measurement": "Drug remaining after 30 min", "setting": "[4]; human liver microsomes", "result": 5, "unit": "%"},
      {"measurement": "half-life at 1 µM", "setting": "[4]; male, CD1, pH 7.4, mouse liver microsomes", "result": 4, "unit": "min"},
      {"measurement": "microsomal CLint at 1 µM", "setting": "[4]; male, CD1, mouse liver microsomes, pH 7.4", "result": 429, "unit": "µL/min/mg"},
      {"measurement": "half-life at 1 µM", "setting": "[4]; male, Sprague Dawley, pH 7.4, rat liver microsomes", "result": 4, "unit": "min"},
      {"measurement": "microsomal CLint at 1 µM", "setting": "[4]; male, Sprague Dawley, rat liver microsomes, pH 7.4", "result": 442, "unit": "µL/min/mg"},
      {"measurement": "Drug remaining after 30 min", "setting": "[4]; mouse liver microsomes", "result": 0.6, "unit": "%"},
      {"measurement": "Drug remaining after 30 min", "setting": "[4]; rat liver microsomes", "result": 0.5, "unit": "%"}
    ]}
  ]
}
